Columns and labels:
hCA I = molecular target: T1, hCA I (Homo sapiens, UniProt P00915); experiment: stopped-flow CO2 hydrase assay, hCA I; type: biochemical
T1 construct: made in house
Description: (§1) An Applied Photophysics stopped-flow instrument has been used for assaying the CA-catalysed CO2 hydration activity, as reported earlier. The enzyme concentrations were in the range 5–12 nM. All hCA isoforms were recombinant proteins, being obtained in-house as reported earlier.

hCA II = molecular target: T2, hCA II (Homo sapiens, UniProt P00918); experiment: stopped-flow CO2 hydrase assay, hCA II; type: biochemical
T2 construct: made in house
Text: . The structure-activity relationship is discussed separately for the two compound subsets. Another code pattern is included for the MTDLs in Table 1, which indicates the derivative CAI type (sulphonamide, S or coumarin, C) and the number of atoms in the spacers connecting either berberine and the triazole (carbon atoms) or the triazole and the benzenesulfonamide/coumarin scaffolds (carbon or oxygen atoms).
as §1

hCA IX = molecular target: T3, hCA IX (Homo sapiens, UniProt Q16790); experiment: stopped-flow CO2 hydrase assay, hCA IX; type: biochemical; conditions: for Selectivity index (SI) I/IX: hCA IX over hCA I; for Selectivity index (SI) II/IX: hCA IX over hCA II; for Ki: mean ± SEM of three assays
T3 construct: made in house
Text: (§2) An Applied Photophysics stopped-flow instrument has been used for assaying the CA-catalysed CO2 hydration activity, as reported earlier. […] All hCA isoforms were recombinant proteins, being obtained in-house as reported earlier.

hCA XII = molecular target: T4, hCA XII (Homo sapiens, UniProt O43570); experiment: stopped-flow CO2 hydrase assay, hCA XII; type: biochemical; conditions: for Selectivity index (SI) I/XII: hCA XII over hCA I; for Selectivity index (SI) II/XII: hCA XII over hCA II; for Ki: mean ± SEM of three assays
T4 construct: made in house
T4 sequence (O43570 25-354): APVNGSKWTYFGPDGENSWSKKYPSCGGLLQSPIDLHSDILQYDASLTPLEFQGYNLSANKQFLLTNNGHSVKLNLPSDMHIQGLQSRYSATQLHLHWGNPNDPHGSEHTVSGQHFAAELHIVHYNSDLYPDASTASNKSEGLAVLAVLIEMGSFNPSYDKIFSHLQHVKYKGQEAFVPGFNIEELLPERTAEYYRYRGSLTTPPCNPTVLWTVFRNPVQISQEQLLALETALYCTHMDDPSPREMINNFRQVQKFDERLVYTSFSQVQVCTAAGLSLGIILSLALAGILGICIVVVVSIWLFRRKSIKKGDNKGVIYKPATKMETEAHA
Text: as §2

Tel23 = experiment: CD melting experiments, Tel23 GQ; type: binding, human; conditions: for ΔT1/2 Tel23: 2 molar equiv compound, T1/2 of DNA alone 53.5 °C; for ΔΔT1/2 Tel23: ΔT1/2 of compound minus ΔT1/2 of berberine, 2 molar equiv
Text: (§3) The 21 synthesised MTDLs were screened for their ability to bind to and stabilise DNA GQ-forming sequences, compared to berberine, by CD experiments. Indeed, circular dichroism has shown to be outstandingly useful and informative for noncanonical nucleic acid secondary structures. For this purpose, a G-rich 23-nucleotide truncation (23-nt) of the human telomeric sequence (Tel23) and two G-rich motifs from the promoter regions of c-KIT (c-Kit1) and c-MYC (c-Myc) oncogenes were employed. First, the overall topology adopted by each DNA sequence in K^+-containing buffer was verified by CD spectra. […] GQ conformation (Figure S1, Supporting Information). On the other hand, c-Kit1 and c-Myc sequences adopted a parallel GQ conformation, showing a distinctive positive band at around 260 nm and a negative one at ∼240 nm in their CD spectra (Figures S2 and S3, Supporting Information).
(§4) Afterwards, the GQ-stabilising properties of the molecules were assessed by CD melting experiments, measuring the differences in the apparent melting temperatures of the DNA in the presence and absence of compounds (ΔT1/2) (Figures S4–S6 and Table S2, Supporting Information). […] This could be explained by considering the higher accessibility of the external G-tetrads in the case of parallel GQs compared to the hybrid one[52], which would allow the additional CAI moiety of conjugated compounds to be better accommodated in the binding site. […] . […] .

c-Kit1 = experiment: CD melting experiments, c-Kit1 GQ; type: binding; conditions: for ΔT1/2 c-Kit1: 2 molar equiv compound, T1/2 of DNA alone 55.0 °C; for ΔΔT1/2 c-Kit1: ΔT1/2 of compound minus ΔT1/2 of berberine, 2 molar equiv
Text: as §3, §4

c-Myc = experiment: CD melting experiments, c-Myc GQ; type: binding; conditions: for ΔT1/2 c-Myc: 1 molar equiv compound, T1/2 of DNA alone 70.0 °C; for ΔΔT1/2 c-Myc: ΔT1/2 of compound minus ΔT1/2 of berberine, 1 molar equiv
Text: as §3, §4

Hairpin = experiment: CD melting experiments, hairpin DNA duplex; conditions: 2 molar equiv compound, T1/2 of DNA alone 66.0 °C
Description: To evaluate the possible binding and stabilisation of double-stranded DNA, a 27-nt long hairpin-forming sequence (Hairpin) was employed.
In particular, the following DNA sequences were synthesised and employed for the experiments: d([sequence]) (c-Kit1), d([sequence]) (c-Myc), d([sequence]) (Tel23), and d([sequence]) (Hairpin). Oligonucleotides were dissolved in the proper buffer and their concentration was measured by UV absorption at 90 °C, as previously reported[80]^,[81]. To achieve the correct folding of the sequences, the DNA solutions were heated in a water bath at 90 °C for 5 min, and then allowed to cool slowly to room temperature overnight. Then, DNA samples were stored at 4 °C for 24 h, before data acquisition.
The samples were prepared by dissolving the oligonucleotides in 5 mM KH2PO4/K2HPO4 buffer (pH 7.0) containing 20 mM KCl (or LiCl in the case of c-Myc because of its high thermal stability). DNA concentrations of 20 µM for GQs and 30 µM for Hairpin were used. For each compound, a 10 mM stock solution in 100% DMSO was prepared. […] CD spectra were acquired at 20 and 100 °C, in the 230–320 nm wavelength range, averaged over three scans and subtracted of the buffer baseline. The scanning speed was set to 100 nm/min, with a 0.5 s response time, and 1 nm bandwidth. CD melting experiments were carried out in the 20–100 °C temperature range, with 1 °C/min heating rate, by following changes in the CD signal at the wavelengths of the maximum CD intensity (i.e. 263 nm for c-Kit1 and c-Myc, and 290 nm for Tel23). As for Hairpin, CD melting curves were recorded by following the changes in the CD signal at 252 nm (the wavelength of the minimum CD intensity). CD melting curves were normalised between 0 and 1. […] The ΔT1/2 values correspond to the difference in the T1/2 values of the nucleic acid structures in the presence and absence of the compounds. All experiments were performed in duplicate, and the reported values are the mean of the two measurements.

[1] = sulphonamides, inhibitor-enzyme incubation 15 min, mean ± SEM of three assays
[2] = sulphonamides, inhibitor-enzyme incubation 15 min
[3] = coumarins, inhibitor-enzyme incubation 6 h

T1 sequence (P00915 whole entry): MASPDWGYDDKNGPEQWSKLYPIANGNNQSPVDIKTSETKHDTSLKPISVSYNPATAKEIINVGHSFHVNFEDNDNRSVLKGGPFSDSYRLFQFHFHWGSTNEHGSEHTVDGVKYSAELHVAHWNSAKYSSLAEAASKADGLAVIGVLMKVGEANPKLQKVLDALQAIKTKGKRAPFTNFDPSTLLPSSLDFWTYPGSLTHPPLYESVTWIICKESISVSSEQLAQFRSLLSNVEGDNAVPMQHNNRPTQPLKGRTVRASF

Structure (SMILES) | Ki (hCA I; [1]) [nM] | Ki (hCA II; [1]) [nM] | Selectivity index (SI) I/IX (hCA IX) | Selectivity index (SI) II/IX (hCA IX) | Ki (hCA IX; [2]) [nM] | Selectivity index (SI) I/XII (hCA XII) | Selectivity index (SI) II/XII (hCA XII) | Ki (hCA XII; [2]) [nM] | ΔT1/2 Tel23 (Tel23) [°C] | ΔΔT1/2 Tel23 (Tel23) [°C] | ΔT1/2 c-Kit1 (c-Kit1) [°C] | ΔΔT1/2 c-Kit1 (c-Kit1) [°C] | ΔT1/2 c-Myc (c-Myc) [°C] | ΔΔT1/2 c-Myc (c-Myc) [°C] | ΔT1/2 Hairpin (Hairpin) | Ki (hCA I; [3]) [nM] | Ki (hCA II; [3]) [nM] | Ki (hCA IX; [3]) [nM] | Ki (hCA XII; [3]) [nM] | other results
COc1ccc2cc3[n+](cc2c1OCCn1cc(COc2ccc(S(N)(=O)=O)cc2)nn1)CCc1cc2c(cc1-3)OCO2 [Compound 27, 10-Methoxy-9–(2-(4-((4-sulfamoylphenoxy)methyl)-1H-1,2,3-triazol-1-yl)ethoxy)-5,6-dihydro-[1,3]dioxolo[4,5-g]isoquinolino[3,2-a]isoquinolin-7-ium hexafluorophosphate] | 940 ± 52.1 | 6 | 1446 | 9.2 | 0.65 ± 0.05 | 213.7 | 1.4 | 4.4 | 7.5 | −2.0 | 18.5 | 5.5 | 18.5 | 6.5 | -0.5 °C | – | – | – | – | –
COc1ccc2cc3[n+](cc2c1OCCCn1cc(-c2ccc(S(N)(=O)=O)cc2)nn1)CCc1cc2c(cc1-3)OCO2 [Compound 28, 10-Methoxy-9–(3-(4–(4-sulfamoylphenyl)-1H-1,2,3-triazol-1-yl)propoxy)-5,6-dihydro-[1,3]dioxolo[4,5-g]isoquinolino[3,2-a]isoquinolin-7-ium hexafluorophosphate] | 872 ± 55.9 | 66.8 ± 3.9 | 1194 | 91.5 | 0.73 ± 0.04 | 62.3 | 4.8 | 14 ± 1 | 6.0 | −3.5 | 16.5 | 3.5 | – | >13.0 | -2.0 °C | – | – | – | – | ΔΔT1/2 c-Myc (c-Myc; listed as S-3,0): > 13.0 °C
COc1ccc2cc3[n+](cc2c1OCCCCn1cc(COc2ccc(S(N)(=O)=O)cc2)nn1)CCc1cc2c(cc1-3)OCO2 [Compound 31, 10-Methoxy-9–(4-(4-((4-sulfamoylphenoxy)methyl)-1H-1,2,3-triazol-1-yl)butoxy)-5,6-dihydro-[1,3]dioxolo[4,5-g]isoquinolino[3,2-a]isoquinolin-7-ium hexafluorophosphate] | 916 ± 57.9 | 71.5 ± 5.3 | 1308 | 102.1 | 0.71 ± 0.04 | 127.2 | 9.9 | 7.2 ± 0.5 | 8.0 | −1.5 | 15.5 | 2.5 | 13.0 | 1.0 | +0.2 °C | – | – | – | – | –
COc1ccc2cc3[n+](cc2c1OCCCCCn1cc(COc2ccc(S(N)(=O)=O)cc2)nn1)CCc1cc2c(cc1-3)OCO2 [Compound 33, 10-Methoxy-9-((5–(4-((4-sulfamoylphenoxy)methyl)-1H-1,2,3-triazol-1-yl)pentyl)oxy)-5,6-dihydro-[1,3]dioxolo[4,5-g]isoquinolino[3,2-a]isoquinolin-7-ium hexafluorophosphate] | 219 ± 16.2 | 41.1 ± 2.7 | 406.5 | 76.1 | 0.54 ± 0.03 | 75.7 | 14.2 | 2.9 ± 0.1 | 10.5 | 1.0 | 18.5 | 5.5 | 12.5 | 0.5 | +0.2 °C | – | – | – | – | –
COc1ccc2cc3[n+](cc2c1OCCCn1cc(CCOc2ccc4ccc(=O)oc4c2)nn1)CCc1cc2c(cc1-3)OCO2 [Compound 35, 10-Methoxy-9–(3-(4–(2-((2-oxo-2H-chromen-7-yl)oxy)ethyl)-1H-1,2,3-triazol-1-yl)propoxy)-5,6-dihydro-[1,3]dioxolo[4,5-g]isoquinolino[3,2-a]isoquinolin-7-ium hexafluorophosphate] | – | – | > 289.9 | > 289.9 | – | > 529.1 | > 529.1 | – | 8.0 | −1.5 | 18.5 | 5.5 | 18.5 | 6.5 | +2.0 °C | > 100000 | > 100000 | 34.5 ± 2.4 | 18.9 ± 0.9 | –
COc1ccc2cc3[n+](cc2c1OCCCn1cc(CCCOc2ccc4ccc(=O)oc4c2)nn1)CCc1cc2c(cc1-3)OCO2 [Compound 36, 10-Methoxy-9–(3-(4–(3-((2-oxo-2H-chromen-7-yl)oxy)propyl)-1H-1,2,3-triazol-1-yl)propoxy)-5,6-dihydro-[1,3]dioxolo[4,5-g]isoquinolino[3,2-a]isoquinolin-7-ium hexafluorophosphate] | – | – | > 169.8 | > 169.8 | – | > 352.1 | > 352.1 | – | 12.5 | 3.0 | 17.0 | 4.0 | 15.0 | 3.0 | +0.5 °C | > 100000 | > 100000 | 58.9 ± 3.9 | 28.4 ± 1.7 | –
COc1ccc2cc3[n+](cc2c1OCCCCn1cc(CCOc2ccc4ccc(=O)oc4c2)nn1)CCc1cc2c(cc1-3)OCO2 [Compound 38, 10-Methoxy-9–(4-(4–(2-((2-oxo-2H-chromen-7-yl)oxy)ethyl)-1H-1,2,3-triazol-1-yl)butoxy)-5,6-dihydro-[1,3]dioxolo[4,5-g]isoquinolino[3,2-a]isoquinolin-7-ium hexafluorophosphate] | – | – | > 332.2 | > 332.2 | – | > 598.8 | > 598.8 | – | 7.5 | −2.0 | 17.5 | 4.5 | 15.0 | 3.0 | -2.0 °C | > 100000 | > 100000 | 30.1 ± 1.8 | 16.7 ± 1.2 | –
COc1ccc2cc3[n+](cc2c1OCc1cn(-c2cccc(S(N)(=O)=O)c2)nn1)CCc1cc2c(cc1-3)OCO2 [Compound 40, 10-Methoxy-9-((1–(3-sulfamoylphenyl)-1H-1,2,3-triazol-4-yl)methoxy)-5,6-dihydro-[1,3]dioxolo[4,5-g]isoquinolino[3,2-a]isoquinolin-7-ium hexafluorophosphate] | 3670 ± 22 | 90.1 ± 5.6 | 941.1 | 23.1 | 3.9 ± 0.2 | 148.0 | 3.6 | 24.8 ± 1.3 | 5.5 | −4.0 | 16.0 | 3.0 | – | >13.0 | +0.2 °C | – | – | – | – | ΔΔT1/2 c-Myc (c-Myc; listed as S-1,0m): > 13.0 °C

From publication PMC11195807, “Development of a multi-targeted chemotherapeutic approach based on G-quadruplex stabilisation and carbonic anhydrase inhibition” (Journal of Enzyme Inhibition and Medicinal Chemistry, 2024)
